Measured values reported in patent US12097194B2, “Combination therapy for treating blood cancer” (SIGNALCHEM LIFESCIENCES CORPORATION, priority 2018, dated 2024).
Like-named read-outs stand apart in the source and are kept apart here.

Columns and labels:
Molm-13 AML cell line = test: Compound dose response assay (trypan blue % viability) and CompuSyn combination analysis, Molm-13; assay type: cell-based; conditions: Homo sapiens
Protocol: (§1) The AML cell lines Molm-13 and MV4-11 were obtained from DSMZ. The cells were maintained in culture using RPMI-1640 containing 10% heat-inactivated serum at 37° C./5% CO2. For all experiments, unless otherwise specified, the above-mentioned culture conditions were used. The BCL-2 inhibitors venetoclax (ABT-199) and navitoclax (ABT-263) were purchased from Chemietek. The Axl inhibitor 3-(5-(cyclopropylmethyl)-1,3,4-oxadiazol-2-yl)-5-(1-(piperidin-4-yl)-1H-pyrazol-4-yl)pyridin-2-amine (Compound A) was synthesized according to the method disclosed in WO2015/081257.
(§2) The AML cells Molm-13 and MV4-11 were plated at 5×10^4 cells/mL in 24-well plates and dosed the following day using single or combination of drugs with vehicle (DMSO) only controls. Each cell treatment was conducted in duplicates. Cells were collected 48- or 72-hours post drug treatment, mixed 1:1 with trypan blue and counted manually using a hemocytometer. A total of 100 cells (at the least) were counted for each sample. The % viability was calculated and normalized to vehicle treated controls. Individual IC50 of each compound was determined in each cell line using increasing doses. Four doses less than the IC50 for each compound for each cell line were chosen to conduct the combination studies. The IC50 values were calculated using Prism Version 5.01. CompuSyn software Version 1.0 was used to calculate the combination indices.
(§3) The fraction affected (FA) at the same dose was much higher for the compound combination groups compared to that of the single compound groups.

MV4-11 AML cell line = test: Compound dose response assay (trypan blue % viability) and CompuSyn combination analysis, MV4-11; assay type: cell-based; conditions: Homo sapiens
Protocol: as §1, §2, §3

[1] = system: CD34+ stem and progenitor cells from AML patients; test: Patient-derived xenograft (PDX) model of AML in NRG-3GS mice; assay type: in vivo; conditions: 50 mg/kg QD each agent, oral gavage, 4 weeks, compared to healthy non-leukemic mice
Text: The relative effectiveness of Compound A and the combination of Compound A and ABT-199 in targeting primitive leukemic cells and/or to prevent leukemia development were investigated in in vivo assays. First, highly purified CD34+ stem and progenitor cells from two different AML patients (with high Axl and GAS6 expression; cohort 1=AML patient #2, cohort 2=AML patient #14, as determined in Example 2) were transduced with a GFP/Luciferase lentivirus reporter to allow non-invasive in vivo imaging (IVIS) of the mice to track leukemia development. […]
Leukemic cell burden was also measured in peripheral blood (PB), bone marrow (BM) and spleens in one set of euthanized mice (one mouse from each treatment group in both cohorts, respectively) and immunophenotypes of engrafted cells determined with fluorescently-labelled CD45, CD34, CD38, CD33, CD15, CD14, CD19 surface markers. Splenomegaly was assessed by spleen sizes and weights (FIG. 5).
All remaining mice were monitored for symptoms of disease development (weight loss, lethargy etc.) and survival between treatment groups compared. […] P-values were calculated with the Log-rank (Mantel-Cox) test and significant differences between groups are indicated.

MV4-11 cells = test: MV4-11 cell line xenograft model of AML in NRG mice; assay type: in vivo; conditions: MV4-11 xenograft, 50 mg/kg QD each agent, oral; for bioluminescent signal (IVIS) / leukemia progression: 3 weeks (15 doses)
Protocol: To investigate the safety and the effectiveness of Compound A monotherapy and combination therapy with ABT-199 for eliminating human leukemic cells in animals, a cell-line based xenograft mouse study was performed. First, MV4-11 cells were transduced with a GFP/Luciferase lentivirus vector to allow sorting/analyzing of human leukemic cells in mice and the non-invasive in vivo imaging system (IVIS) of the mice to track leukemia development and leukemia forming sites. Then, 2.5 million of GFP positive MV4-11 cells per mouse were injected intravenously into irradiated male NRG mice. Two weeks after injection, IVIS imaging was performed to confirm leukemia formation and consistent levels of leukemia burden in each mouse. Following that, mice received 3 weeks (total of 15 doses) of oral treatment with vehicle (control), 50 mg/kg Compound A alone QD, 50 mg/kg ABT-199 alone QD or a combination of Compound A (50 mg/kg, QD) and ABT-199 (50 mg/kg, QD).
After the treatment period, another round of IVIS imaging was performed to evaluate the effectiveness of the treatments. FIG. 8A and FIG. 8B show the bioluminescent imaging of representative mice before treatment and after oral gavages with indicated treatments, respectively. Darkened areas represent sites of observed bioluminescence resultant from presence of GFP/Luciferase leukemic cells. For comparison, healthy mice with no transduced leukemic cells (“no cells”) are also shown.
A representative group of mice was then sacrificed to compare engraftment of leukemic cells in peripheral blood (PB), bone marrow (BM), spleens and livers of each treatment group. Infiltration of leukemic cells into hematopoietic organs as spleen and liver was assessed by weights and histopathologic analysis. FIGS. 9A and 9B show spleen sizes and weights, and Haemotoxylin and Eosin staining of representative mice from each treatment group as indicated, respectively.
The remaining mice were monitored for survival between treatment groups. […] Median survival for each treatment group is indicated in days in brackets. P-values were calculated with the Log-rank (Mantel-Cox) test and significant differences between groups are indicated.

[2] = single agent, % viability normalized to vehicle, 48 or 72 hours post treatment, read-out: IC50 (nM), single agent
[3] = BCL-2 inhibitor + Cmpd A, read-out: IC50 (nM) of BCL-2 inhibitor in the presence of Compound A

Row | IC50 (Molm-13 AML cell line; [3]) | IC50 (MV4-11 AML cell line; [3]) | Compound | IC50 (Molm-13 AML cell line; [2]) | IC50 (MV4-11 AML cell line; [2]) | splenomegaly (spleen sizes and weights) [1] | leukemia propagating activity in vivo (MV4-11 cells; 3 weeks) | spleen enlargement (spleen sizes and weights) (MV4-11 cells; 3 weeks) | bioluminescent signal (IVIS) / leukemia progression (MV4-11 cells)
1 |  |  | Nc1ncc(-c2cnn(C3CCNCC3)c2)cc1-c1nnc(CC2CC2)o1 [Compound A, 3-(5-(cyclopropylmethyl)-1,3,4-oxadiazol-2-yl)-5-(1-(piperidin-4-yl)-1H-pyrazol-4-yl)pyridin-2-amine] | 430 nM | 421 nM | significantly enlarged | can reduce leukemia propagating activity in vivo | no sign of spleen enlargement | dramatically lower intensity bioluminescent signals compared to vehicle and ABT-199 treated mice
2 | 116 nM | 36.8 nM | CC1(C)CCC(c2ccc(Cl)cc2)=C(CN2CCN(c3ccc(C(=O)NS(=O)(=O)c4ccc(N[C@H](CCN5CCOCC5)CSc5ccccc5)c(S(=O)(=O)C(F)(F)F)c4)cc3)CC2)C1 [ABT-263, Navitoclax] | 358 nM | 93.5 nM |  |  |  | 
3 | 9.9 nM | 0.99 nM | CC1(C)CCC(CN2CCN(c3ccc(C(=O)NS(=O)(=O)c4ccc(NCC5CCOCC5)c([N+](=O)[O-])c4)c(Oc4cnc5[nH]ccc5c4)c3)CC2)=C(c2ccc(Cl)cc2)C1 [ABT-199, Venetoclax] | 55.9 nM | 20.5 nM | significantly enlarged |  | increased size and weight in the spleens | aggressive leukemia progression
